Data on 2 compounds can be found in patent US20210060121A1, “NOVEL ANTIBIOTICS AND METHODS OF USING THEM” (priority 2018, published 2021).

The structures appear in SMILES notation. In brackets after ≈: the same amount, converted by molar mass.

For one assay, the system named is MRSA(SA11I4). It counts as cell-based, Staphylococcus aureus. On the procedure: (§1) Susceptibility to teixobactin and its analogues was tested on the selected Gram-positive strains using Tecan Freedom EVO high-throughput automated platform, following the standard broth dilution method as described by the Clinical and Laboratory Standards Institute ^3. MICS were determined according to CLSI guideline.

The next assay has as its system SA (ATCC29213). It is filed as cell-based, Staphylococcus aureus. The procedure:
as §1

The test system of assay [1] is Staphylococcus aureus strain ATCC43300. The assay can be described thus: Wax worm survival model infected with S. aureus. It counts as in vivo, Galleria mellonella. From the text: FIG. 2. In vivo antibacterial activities of certain antibiotics of the invention. Efficacy of teixobactin and certain antibiotics of the invention for treating infections caused by Staphylococcus aureus strain ATCC43300 was studied in wax worm larvae (Galleria mellonella) model. PBS, control group without infection and treated with PBS: All other groups (20 each group) were infected with 10^7 CFU of S. aureus strain ATCC43300 followed by no treatment or treatment with one dose of vancomycin at 10 mg/kg (A-10) or 50 mg/kg (A-50), teixobactin at 10 mg/kg (B-10) or 50 mg/kg (B-50), or one dose of the representative analogue, Chg10-teixobactin, at 10 mg/kg (C-10) or 50 mg/kg (C-50).
Exemplary in vivo antibacterial activity: Chg10-Teixobactin was studied in wax worm survival models infected with S. aureus strain ATCC43300. Teixobactin were used as controls. […] At a dose of 50 mg/kg, Chg10-Teixobactin protected 100% infected wax worms (See FIG. 2).

The next assay relates to MRSA and SA strains. The assay can be described thus: MIC, summary over S. aureus strains. It is filed as cell-based, Staphylococcus aureus. On the procedure: as §1
The subject of a further assay is MRSA SA11. It is filed as cell-based, Staphylococcus aureus. The procedure:
as §1

The subject of the next assay is MRSA SA86. It counts as cell-based, Staphylococcus aureus. The procedure: as §1
For another assay, the system named is MRSA SA88. It is filed as cell-based, Staphylococcus aureus. On the procedure:
as §1

For the next assay, the system named is Enterococcus ATCCET. It counts as cell-based. On the procedure: as §1
The next assay relates to Enterococcus ET60. It counts as cell-based. On the procedure:
as §1

The subject of a further assay is Enterococcus ET6. It is filed as cell-based. The procedure:
as §1

The test system of assay [2] is Streptococcus faecalis SF. It is filed as cell-based. The procedure: as §1
The subject of assay [3] is Streptococcus faecalis and Enterococcus strains. Kind of assay: MIC, text summary over Streptococcus faecalis and Enterococcus. The settings on record: against Streptococcus faecalis and Enterococcus strains; Table 2. It is filed as cell-based. The procedure: as §1

For the compound `CC[C@@H](C)[C@@H](NC(=O)[C@@H](CCC(N)=O)NC(=O)[C@H](CO)NC(=O)[C@@H](NC(=O)[C@@H](Cc1ccccc1)NC)[C@@H](C)CC)C(=O)N[C@H](C(=O)N[C@@H](CO)C(=O)N[C@H]1C(=O)N[C@@H](C)C(=O)N[C@@H](C2CCCCC2)C(=O)N[C@@H]([C@@H](C)CC)C(=O)O[C@H]1C)[C@@H](C)CC` [Chg10-teixobactin], the “Minimum inhibitory concentration (MIC) MRSA(SA11I4)” value in the assay with MRSA(SA11I4) was 1 µg/mL (≈ 0.815 µM). In addition, the “Minimum inhibitory concentration (MIC) SA (ATCC29213)” value in the assay on SA (ATCC29213) was found to be 0.25 µg/mL (≈ 0.204 µM). For the same compound, in assay [1] (one dose of 50 mg/kg, wax worms infected with S. aureus ATCC43300), the “Infected wax worms protected” value is 100%. The “In vivo antibacterial activities, teixobactin as control” value in [1] (one dose treatment, wax worm survival model, S. aureus ATCC43300) is reported as “improved antibacterial activities”. Also, the “Antibacterial activity compared with teixobactin” value in the assay on MRSA and SA strains (MRSA clinical isolate and MSSA ATCC29213, from MICs) is listed as “two times higher activities than teixobactin”.

As for `CC[C@@H](C)[C@@H](NC(=O)[C@@H](CCC(N)=O)NC(=O)[C@@H](NC(=O)[C@@H](NC(=O)[C@@H](Cc1ccccc1)NC)[C@@H](C)CC)[C@@H](C)CC)C(=O)N[C@H](C(=O)N[C@@H](CO)C(=O)N[C@H]1C(=O)N[C@@H](C)C(=O)N[C@@H](C2CCCCC2)C(=O)N[C@@H]([C@@H](C)CC)C(=O)O[C@H]1C)[C@@H](C)CC` [T88], in the assay on MRSA SA11, the “Minimum inhibitory concentration (MIC) MRSA SA11” value was 4 µg/mL (≈ 3.19 µM). The “Minimum inhibitory concentration (MIC) MRSA SA86” value in the assay with MRSA SA86 came out at 4 µg/mL (≈ 3.19 µM). The “Minimum inhibitory concentration (MIC) MRSA SA88” value with MRSA SA88 came to 4 µg/mL (≈ 3.19 µM). Besides, the “Minimum inhibitory concentration (MIC) MRSA(SA11I4)” value in the assay on MRSA(SA11I4) was 8 µg/mL (≈ 6.38 µM). The “Minimum inhibitory concentration (MIC) SA (ATCC29213)” value with SA (ATCC29213) was 4 µg/mL (≈ 3.19 µM). In addition, in the assay on Enterococcus ATCCET, the “Minimum inhibitory concentration (MIC) Enterococcus ATCCET” value came out at 2 µg/mL (≈ 1.6 µM). Besides, the “Minimum inhibitory concentration (MIC) Enterococcus ET60” value in the assay with Enterococcus ET60 was 1 µg/mL (≈ 0.798 µM). Moreover, the “Minimum inhibitory concentration (MIC) Enterococcus ET6” value with Enterococcus ET6 worked out at 2 µg/mL (≈ 1.6 µM). Besides, the “Minimum inhibitory concentration (MIC) Streptococcus faecalis SF” value in assay [2] amounted to 1 µg/mL (≈ 0.798 µM). Also, the “Activities, times lower than teixobactin” value with MRSA and SA strains (against MRSA and SA strains, Table 2) is given as “about 4 times”. Also, in assay [3], the “Activities compared with teixobactin” value is given as “better than teixobactin”.
